Laboratory results published in patent US9321773B2, “Compounds” (Respivert Ltd, priority 2009, dated 2016).
pIC50: −log10 of the molar value.

Key:
[1] = test system: PMA-differentiated U937 cells; assay: MTT Assay (cell viability); format: cell-based, Human; details: percentage loss of cell viability; for Cell Viability MTT Assay in D-U937 cells at 4 hr: 4 hr in 5% FCS; for Cell Viability MTT Assay in D-U937 cells at 24 hr: 24 hr in 10% FCS
Experimental: PMA-differentiated U937 cells were pre-incubated with compound for 4 hr in 5% FCS or 10% FCS for 24 hr. The supernatant was replaced with 200 μL of new media and 10 μL of MTT stock solution (5 mg/ml) added to each well. After 1 hr incubation, the media were removed, 200 μL of DMSO added to each well and the plates were shaken lightly for 1 hr prior to reading the absorbance at 550 nm. The percentage loss of cell viability was calculated for each well relative to vehicle (0.5% DMSO)-treatment (Table 3).

[2] = test system: H2O2 induced pAkt in D-U937 cells; assay: PI3Kδ Cell Based Assay (H2O2 induced pAkt); details: Homo sapiens, dU937; activity range; D-U937 cells; read-out: Cellular Activity IC50 values (H2O2 induced pAkt D-U937 Cells)
Experimental: As a means of assessing PI3K 6 activation in response to stimuli, the phosphorylation status of the protein, Akt, a downstream product of PI3K6, signaling was determined. Human monocytic cells (U937 cells), were differentiated to macrophage-type cells by incubation with phorbol myristate acetate (PMA; 100 ng/mL) for 48 to 72 hr. […] The cells were washed with buffer (PBS containing 0.1% Triton X-100) and were incubated with blocking solution (1% BSA in PBS) for 1 hr and were then re-washed with buffer and incubated overnight with either anti-pAkt antibody or anti-pan-Akt antibody (both from Cell Signaling Technology). […] This reaction was stopped by addition of 100 μL of 1N H2SO4 solution. […] The ratio of pAkt signal to total Akt signal was used to quantitate the extent of PI3K δ activation. […] The IC50 values were calculated from the concentration-response curves generated by the serial dilutions of the test compounds (Table 3 and Table 4).

recombinant PI3 kinase γ = recombinant PI3 kinase γ (Homo sapiens (Human), UniProt P48736); assay: Enzyme Inhibition Assay (HTRF PI3K enzyme assay, TR-FRET); format: biochemical; details: activity range; read-out: PI3 Kinase Inhibition IC50 values at stated Isozyme γ
recombinant PI3 kinase γ, sequence (P48736 whole entry): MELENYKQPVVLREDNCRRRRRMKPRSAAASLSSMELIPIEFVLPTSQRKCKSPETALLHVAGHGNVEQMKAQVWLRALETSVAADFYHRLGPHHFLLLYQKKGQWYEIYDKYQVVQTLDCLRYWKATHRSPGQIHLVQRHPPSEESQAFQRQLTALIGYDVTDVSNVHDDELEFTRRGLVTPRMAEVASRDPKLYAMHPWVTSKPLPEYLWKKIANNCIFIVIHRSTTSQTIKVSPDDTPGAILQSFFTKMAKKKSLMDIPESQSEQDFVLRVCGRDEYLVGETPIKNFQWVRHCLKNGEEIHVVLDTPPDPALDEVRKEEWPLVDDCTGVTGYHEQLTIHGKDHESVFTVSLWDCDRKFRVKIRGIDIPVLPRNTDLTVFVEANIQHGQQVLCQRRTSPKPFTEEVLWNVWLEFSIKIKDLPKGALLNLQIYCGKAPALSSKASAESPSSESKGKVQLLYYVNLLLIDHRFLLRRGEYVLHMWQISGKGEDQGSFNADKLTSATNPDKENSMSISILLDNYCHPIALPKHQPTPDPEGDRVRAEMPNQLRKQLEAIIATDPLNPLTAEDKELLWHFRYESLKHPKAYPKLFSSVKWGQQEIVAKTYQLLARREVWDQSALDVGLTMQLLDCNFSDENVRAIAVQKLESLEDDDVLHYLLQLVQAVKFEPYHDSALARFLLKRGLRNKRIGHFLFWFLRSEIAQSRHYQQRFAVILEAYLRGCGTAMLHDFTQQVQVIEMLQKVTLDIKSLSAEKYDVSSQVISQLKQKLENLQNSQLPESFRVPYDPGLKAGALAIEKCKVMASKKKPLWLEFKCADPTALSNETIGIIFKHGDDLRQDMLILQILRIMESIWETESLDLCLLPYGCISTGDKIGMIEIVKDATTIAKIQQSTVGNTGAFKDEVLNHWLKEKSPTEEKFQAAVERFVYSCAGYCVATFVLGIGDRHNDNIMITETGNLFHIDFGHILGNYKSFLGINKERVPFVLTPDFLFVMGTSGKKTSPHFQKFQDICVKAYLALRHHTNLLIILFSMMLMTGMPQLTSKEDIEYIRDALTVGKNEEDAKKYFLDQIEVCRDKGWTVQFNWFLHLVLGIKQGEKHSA
Text: (§1) PI3 kinases catalyse the phosphorylation of phosphatidylinositol 4,5-biphosphate (PIP2) to phosphatidylinositol 3,4,5-triphosphate (PIP3) in the presence of ATP and Mg^2+ ions. The PIP3 product can be detected by displacement of biotin-PIP3 from energy transfer complexes consisting of europium labelled anti-GST monoclonal antibody, a GST-tagged Pleckstrin homology (PH) domain, biotinylated PIP3 and streptavidin-allophycocyanin (APC) by the time-resolved fluorescence resonance energy transfer (TR-FRET) (HTRF® PI3K enzyme assay, Millipore). […] The PIP3 product formed by PI3K activity displaces biotin-PIP3 from the complex and results in a loss of energy transfer (decreasing signal).
(§2) The compound to be tested was added, at the desired final concentrations, to a mixture of PIP2 substrate and recombinant PI3 kinase α, δ or γ enzymes (Millipore), and the mixture incubated for 2 hr at RT. […] A stopping solution containing biotinylated PIP3 and the detection mix containing the GST tagged GRP1 pleckstrin homology (PH) domain and fluorophores were then added and the mixture was incubated at RT for 15-18 hr, prior to detection in a fluorescence microplate reader (Varioskan® Flash, ThermoFisher Scientific).

recombinant PI3 kinase δ = recombinant PI3 kinase δ (Homo sapiens (Human), UniProt O00329); assay: as above; format: biochemical; details: activity range; read-out: PI3 Kinase Inhibition IC50 values at stated Isozyme δ
recombinant PI3 kinase δ, sequence (O00329 whole entry): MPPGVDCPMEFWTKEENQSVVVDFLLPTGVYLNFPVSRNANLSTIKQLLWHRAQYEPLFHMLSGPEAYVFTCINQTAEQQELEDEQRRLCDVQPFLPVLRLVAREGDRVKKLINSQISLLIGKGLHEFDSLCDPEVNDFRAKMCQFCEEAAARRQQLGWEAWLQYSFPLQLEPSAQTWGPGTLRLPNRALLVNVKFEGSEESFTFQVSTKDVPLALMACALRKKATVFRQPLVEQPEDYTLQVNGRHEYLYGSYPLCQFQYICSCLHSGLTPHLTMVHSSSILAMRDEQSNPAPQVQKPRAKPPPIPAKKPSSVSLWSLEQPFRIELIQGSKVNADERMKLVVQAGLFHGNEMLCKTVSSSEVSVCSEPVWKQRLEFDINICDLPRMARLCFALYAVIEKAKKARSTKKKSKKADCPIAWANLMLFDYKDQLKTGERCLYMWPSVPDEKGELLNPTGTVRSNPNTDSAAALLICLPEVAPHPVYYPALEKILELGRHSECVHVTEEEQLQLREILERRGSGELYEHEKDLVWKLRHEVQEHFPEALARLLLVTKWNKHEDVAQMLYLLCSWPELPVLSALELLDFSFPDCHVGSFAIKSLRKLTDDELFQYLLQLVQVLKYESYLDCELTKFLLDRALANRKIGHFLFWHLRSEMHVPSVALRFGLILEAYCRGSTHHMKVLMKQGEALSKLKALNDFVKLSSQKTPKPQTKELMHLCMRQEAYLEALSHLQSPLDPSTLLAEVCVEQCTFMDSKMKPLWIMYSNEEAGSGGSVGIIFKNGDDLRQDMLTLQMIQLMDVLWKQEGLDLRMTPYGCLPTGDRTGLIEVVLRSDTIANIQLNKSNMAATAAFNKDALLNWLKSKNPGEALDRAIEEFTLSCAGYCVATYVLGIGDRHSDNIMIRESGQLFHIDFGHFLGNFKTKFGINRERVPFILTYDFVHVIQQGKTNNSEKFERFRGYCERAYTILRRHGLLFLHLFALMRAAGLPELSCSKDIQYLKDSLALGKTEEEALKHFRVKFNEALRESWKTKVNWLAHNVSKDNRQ
recombinant PI3 kinase δ, sequence (P27986 whole entry partner): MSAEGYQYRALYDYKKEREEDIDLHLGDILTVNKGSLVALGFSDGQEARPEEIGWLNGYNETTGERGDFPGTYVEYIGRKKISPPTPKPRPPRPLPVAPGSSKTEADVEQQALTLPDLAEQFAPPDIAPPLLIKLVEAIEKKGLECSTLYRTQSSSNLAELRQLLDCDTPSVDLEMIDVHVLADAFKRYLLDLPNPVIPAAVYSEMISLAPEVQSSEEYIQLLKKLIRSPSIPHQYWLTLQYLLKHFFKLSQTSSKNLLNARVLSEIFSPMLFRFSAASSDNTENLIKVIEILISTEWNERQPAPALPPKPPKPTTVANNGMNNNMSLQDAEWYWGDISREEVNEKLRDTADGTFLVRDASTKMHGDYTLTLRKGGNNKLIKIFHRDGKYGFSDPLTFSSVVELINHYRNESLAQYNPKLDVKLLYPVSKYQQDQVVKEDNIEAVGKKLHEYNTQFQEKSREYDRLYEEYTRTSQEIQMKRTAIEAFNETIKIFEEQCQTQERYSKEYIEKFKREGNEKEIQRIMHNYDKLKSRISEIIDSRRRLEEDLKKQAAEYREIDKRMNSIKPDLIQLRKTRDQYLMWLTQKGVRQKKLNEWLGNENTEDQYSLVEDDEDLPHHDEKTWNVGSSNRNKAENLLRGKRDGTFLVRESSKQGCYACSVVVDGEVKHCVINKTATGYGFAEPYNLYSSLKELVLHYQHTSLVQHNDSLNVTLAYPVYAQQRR
Text: as §1, §2

recombinant PI3 kinase α = recombinant PI3 kinase α (Homo sapiens (Human), UniProt P42336); assay: as above; format: biochemical; details: activity range; read-out: PI3 Kinase Inhibition IC50 values at stated Isozyme α
recombinant PI3 kinase α, sequence (P42336 whole entry): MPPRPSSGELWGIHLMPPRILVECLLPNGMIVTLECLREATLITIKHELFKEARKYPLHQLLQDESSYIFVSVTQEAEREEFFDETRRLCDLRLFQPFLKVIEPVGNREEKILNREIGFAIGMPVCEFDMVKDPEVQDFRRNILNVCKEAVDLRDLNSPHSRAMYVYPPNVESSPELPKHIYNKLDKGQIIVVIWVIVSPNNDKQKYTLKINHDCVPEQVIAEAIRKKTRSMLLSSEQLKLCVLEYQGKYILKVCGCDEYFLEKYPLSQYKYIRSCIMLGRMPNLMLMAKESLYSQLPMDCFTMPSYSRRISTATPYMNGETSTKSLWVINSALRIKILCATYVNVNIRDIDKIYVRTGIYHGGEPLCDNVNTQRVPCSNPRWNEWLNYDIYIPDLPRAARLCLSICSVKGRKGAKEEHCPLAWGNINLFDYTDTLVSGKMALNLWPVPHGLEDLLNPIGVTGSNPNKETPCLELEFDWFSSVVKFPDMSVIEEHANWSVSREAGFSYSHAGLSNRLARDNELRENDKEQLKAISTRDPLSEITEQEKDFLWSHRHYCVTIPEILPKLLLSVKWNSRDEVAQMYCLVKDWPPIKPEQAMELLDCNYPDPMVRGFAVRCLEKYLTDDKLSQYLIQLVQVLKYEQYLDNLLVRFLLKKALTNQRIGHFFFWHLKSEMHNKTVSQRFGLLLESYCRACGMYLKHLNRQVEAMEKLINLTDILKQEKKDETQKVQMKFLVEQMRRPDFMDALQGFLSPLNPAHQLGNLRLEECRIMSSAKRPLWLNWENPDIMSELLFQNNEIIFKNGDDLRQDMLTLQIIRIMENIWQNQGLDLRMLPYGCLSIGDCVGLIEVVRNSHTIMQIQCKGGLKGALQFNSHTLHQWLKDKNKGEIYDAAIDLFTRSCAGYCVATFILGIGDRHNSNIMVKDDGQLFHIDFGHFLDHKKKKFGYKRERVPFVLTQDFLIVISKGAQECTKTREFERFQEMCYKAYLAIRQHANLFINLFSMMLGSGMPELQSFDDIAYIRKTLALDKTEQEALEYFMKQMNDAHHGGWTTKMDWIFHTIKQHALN
recombinant PI3 kinase α, sequence (P27986 whole entry partner): as the sequence (P27986 whole entry partner) above
Text: as §1, §2

Row | SMILES | Cell Viability MTT Assay in D-U937 cells at 4 hr [1] | Cell Viability MTT Assay in D-U937 cells at 24 hr [1] | pIC50 [2] | pIC50 (recombinant PI3 kinase γ) | pIC50 (recombinant PI3 kinase δ) | pIC50 (recombinant PI3 kinase α)
1 | C#Cc1cccc2nc(Cn3nc(-c4ccc(O)cc4)c4c(N)ncnc43)n(Cc3ccccc3)c(=O)c12 [Example 44, 2-((4-Amino-3-(4-hydroxyphenyl)-1H-pyrazolo[3,4-d]pyrimidin-1-yl)methyl)-3-benzyl-5-ethynylquinazolin-4(3H)-one] | − (− <30%) | − (− <30%) | > 8.00 | 6.00 to 7.30 | > 7.30 | < 6.00
2 | C#Cc1cccc2nc(Cn3nc(-c4ccc(O)cc4)c4c(N)ncnc43)n(Cc3ccccc3C(F)(F)F)c(=O)c12 [Example 45, 2-((4-Amino-3-(4-hydroxyphenyl)-1H-pyrazolo[3,4-d]pyrimidin-1-yl)methyl)-5-ethynyl-3-(2-trifluoromethylbenzyl)quinazolin-4(3H)-one] | − (− <30%) | − (− <30%) | > 8.00 | 6.00 to 7.30 | > 7.30 | 6.00 to 7.30
3 | C#Cc1cccc2nc(Cn3nc(-c4ccc(O)cc4)c4c(N)ncnc43)n(Cc3ccc(OC)cc3)c(=O)c12 [Example 46, 2-((4-Amino-3-(4-hydroxyphenyl)-1H-pyrazolo[3,4-d]pyrimidin-1-yl)methyl)-5-ethynyl-3-(4-methoxybenzyl)quinazolin-4(3H)-one] | − (− <30%) | − (− <30%) | > 8.00 | 6.00 to 7.30 | > 7.30 | 6.00 to 7.30
4 | C#Cc1cccc2nc(Cn3nc(-c4ccc(O)cc4)c4c(N)ncnc43)n(Cc3ccc(C#N)cc3)c(=O)c12 [Example 47, 4-((2-((4-Amino-3-(4-hydroxyphenyl)-1H-pyrazolo[3,4-d]pyrimidin-1-yl)methyl)-5-ethynyl-4-oxoquinazolin-3(4H)-yl)methyl)benzonitrile] | − (− <30%) | − (− <30%) | > 8.00 | 6.00 to 7.30 | > 7.30 | 6.00 to 7.30
5 | C#Cc1cccc2nc(Cn3nc(-c4ccc(O)cc4)c4c(N)ncnc43)n(Cc3ccc(OC)cc3F)c(=O)c12 [Example 48, 2-((4-Amino-3-(4-hydroxyphenyl)-1H-pyrazolo[3,4-d]pyrimidin-1-yl)methyl)-5-ethynyl-3-(2-fluoro-4-methoxybenzyl)quinazolin-4(3H)-one] | − (− <30%) | − (− <30%) | > 8.00 | 6.00 to 7.30 | > 7.30 | 6.00 to 7.30
6 | NC(=O)NCC#Cc1cccc2nc(Cn3nc(-c4ccc(O)cc4)c4c(N)ncnc43)n(Cc3ccccc3Cl)c(=O)c12 [Example 49, 1-(3-(2-((4-Amino-3-(4-hydroxyphenyl)-1H-pyrazolo[3,4-d]pyrimidin-1-yl)methyl)-3-(2-chlorobenzyl)-4-oxo-3,4-dihydroquinazolin-5-yl)prop-2-ynyl)urea] | − (− <30%) | − (− <30%) | > 8.00 | 6.00 to 7.30 | > 7.30 | 6.00 to 7.30
7 | COCCOCCOCC#Cc1cccc2nc(Cn3nc(-c4cccc(O)c4)c4c(N)ncnc43)n(Cc3ccccc3F)c(=O)c12 [Example 50, 2-((4-Amino-3-(3-hydroxyphenyl)-1H-pyrazolo[3,4-d]pyrimidin-1-yl)methyl)-3-(2-fluorobenzyl)-5-(3-(2-(2-methoxyethoxy)ethoxy)prop-1-ynyl)quinazolin-4(3H)-one] | − (− <30%) | − (− <30%) | > 8.00 | 6.00 to 7.30 | > 7.30 | 6.00 to 7.30
8 | C#Cc1cccc2nc(Cn3nc(-c4ccc(F)c(O)c4)c4c(N)ncnc43)n(Cc3ccccc3Cl)c(=O)c12 [Example 51, 2-((4-Amino-3-(4-fluoro-3-hydroxyphenyl)-1H-pyrazolo [3,4-d]pyrimidin-1-yl)methyl)-3-(2-chlorobenzyl)-5-ethynylquinazolin-4(3H)-one] | − (− <30%) | − (− <30%) | > 8.00 | 6.00 to 7.30 | > 7.30 | 6.00 to 7.30
9 | Nc1ncnc2c1c(-c1ccc(O)cc1)nn2Cc1nc2cccc(C#CCOc3ccccc3)c2c(=O)n1Cc1ccccc1Cl [Example 52, 2-((4-Amino-3-(4-hydroxyphenyl)-1H-pyrazolo[3,4-d]pyrimidin-1-yl)methyl)-3-(2-chlorobenzyl)-5-(3-phenoxyprop-1-ynyl)quinazolin-4(3H)-one] | − (− <30%) | − (− <30%) | > 8.00 | > 7.30 | > 7.30 | 6.00 to 7.30
10 | Nc1ncnc2c1c(-c1ccc(O)cc1)nn2Cc1nc2cccc(C#CCCCC(=O)N3CCOCC3)c2c(=O)n1Cc1ccccc1F [Example 53, 2-((4-Amino-3-(4-hydroxyphenyl)-1H-pyrazolo[3,4-d]pyrimidin-1-yl)methyl)-3-(2-fluorobenzyl)-5-(6-morpholino-6-oxohex-1-yn-1-yl)quinazolin-4(3H)-one] | − (− <30%) | − (− <30%) | > 8.00 | > 7.30 | > 7.30 | > 7.30
11 | COCCNC(=O)CCCC#Cc1cccc2nc(Cn3nc(-c4cccc(O)c4)c4c(N)ncnc43)n(Cc3ccccc3Cl)c(=O)c12 [Example 54, 6-(2-((4-Amino-3-(3-hydroxyphenyl)-1H-pyrazolo[3,4-d]pyrimidin-1-yl)methyl)-3-(2-chlorobenzyl)-4-oxo-3,4-dihydroquinazolin-5-yl)-N-(2-methoxyethyl)hex-5-ynamide] | − (− <30%) | − (− <30%) | > 8.00 | > 7.30 | > 7.30 | > 7.30
12 | Nc1ncnc2c1c(-c1cccc(O)c1)nn2Cc1nc2cccc(C#CCCCCC(=O)N3CCOCC3)c2c(=O)n1Cc1ccccc1Cl [Example 55, 2-((4-Amino-3-(3-hydroxyphenyl)-1H-pyrazolo[3,4-d]pyrimidin-1-yl)methyl)-3-(2-chlorobenzyl)-5-(7-morpholino-7-oxohept-1-yn-1-yl)quinazolin-4(3H)-one] | − (− <30%) | − (− <30%) | > 8.00 | > 7.30 | > 7.30 | 6.00 to 7.30
13 | Nc1ncnc2c1c(-c1cccc(O)c1)nn2Cc1nc2cccc(C#CCCC(=O)N3CCOCC3)c2c(=O)n1Cc1ccccc1Cl [Example 56] | − (− <30%) | − (− <30%) | > 8.00 | > 7.30 | > 7.30 | > 7.30
14 | Nc1ncnc2c1c(-c1ccc(O)cc1)nn2Cc1nc2cccc(C#CCCCC(=O)N3CCCCC3)c2c(=O)n1Cc1ccccc1Cl [Example 58, 2-((4-Amino-3-(4-hydroxyphenyl)-1H-pyrazolo[3,4-d]pyrimidin-1-yl)methyl)-3-(2-chlorobenzyl)-5-(6-oxo 6-(piperidin-1-yl)hex-1-yn-1-yl)quinazolin-4(3H)-one] | − (− <30%) | − (− <30%) | > 8.00 | > 7.30 | > 7.30 | 6.00 to 7.30
